# Source: the kinase profiling compilation of Christmann-Franck et al. (2016)
# Experiments:
# Experiment in all cases: radiometric filter-binding kinase assay, Kinase HotSpot
# Details in all cases: compound 0.5 µM; ATP 10 µM
# VRK1 (human) = VRK1 (human) (UniProt Q99986)
# PKN1 (human) = PKN1 (human) (UniProt Q16512)
# DYRK2 (human) = DYRK2 (human) (UniProt Q92630)
# MELK (human) = MELK (human) (UniProt Q14680)
# HCK (human) = HCK (human) (UniProt P08631)
# MST4 (human) = MST4 (human) (UniProt Q9P289)
# EPHA5 (human) = EPHA5 (human) (UniProt P54756)
# [1] = tested on: MKNK1 (human), Q9BUB5 [T385D; 165-205 del]
# PRKX (human) = PRKX (human) (UniProt P51817)
# Sequence of PRKX (human) (P51817 whole entry, looked up): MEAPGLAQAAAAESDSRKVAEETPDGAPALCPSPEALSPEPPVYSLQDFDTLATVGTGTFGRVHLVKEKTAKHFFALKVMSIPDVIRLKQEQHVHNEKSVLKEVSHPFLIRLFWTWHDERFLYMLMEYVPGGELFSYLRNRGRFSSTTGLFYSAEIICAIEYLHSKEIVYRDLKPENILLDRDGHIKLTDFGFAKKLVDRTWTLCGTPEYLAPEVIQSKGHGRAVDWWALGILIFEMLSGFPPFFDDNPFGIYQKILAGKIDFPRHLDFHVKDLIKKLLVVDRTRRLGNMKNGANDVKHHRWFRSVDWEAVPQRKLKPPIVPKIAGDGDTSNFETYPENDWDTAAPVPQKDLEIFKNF
# AKT2 (human) = AKT2 (human) (UniProt P31751)
# CSNK1G2 (human) = CSNK1G2 (human) (UniProt P78368)
# Sequence of CSNK1G2 (human) (P78368 whole entry, looked up): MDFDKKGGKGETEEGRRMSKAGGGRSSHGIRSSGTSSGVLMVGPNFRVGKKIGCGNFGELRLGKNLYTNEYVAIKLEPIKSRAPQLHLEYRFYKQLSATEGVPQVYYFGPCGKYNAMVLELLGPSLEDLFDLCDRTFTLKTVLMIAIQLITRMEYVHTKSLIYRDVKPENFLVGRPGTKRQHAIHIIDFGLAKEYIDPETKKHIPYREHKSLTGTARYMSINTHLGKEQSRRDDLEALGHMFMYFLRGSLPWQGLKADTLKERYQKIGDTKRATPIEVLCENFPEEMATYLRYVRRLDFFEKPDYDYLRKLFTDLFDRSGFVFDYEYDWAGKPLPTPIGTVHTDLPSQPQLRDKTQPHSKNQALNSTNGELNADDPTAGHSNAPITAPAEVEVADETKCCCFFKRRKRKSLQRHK
# CHEK1 (human) = CHEK1 (human) (UniProt O14757)
# STK11 (human) = STK11 (human) (UniProt Q15831)
# CDK5 CDK5R1 p25 (human) = CDK5 CDK5R1 p25 (human) (UniProt Q00535+Q15078)
# RPS6KA1 KD1 KD2 (human) = RPS6KA1 KD1 KD2 (human) (UniProt Q15418)
# STK17A (human) = STK17A (human) (UniProt Q9UEE5)
# MAP3K8 (human) = MAP3K8 (human) (UniProt P41279)
# RPS6KA2 KD1 KD2 (human) = RPS6KA2 KD1 KD2 (human) (UniProt Q15349)
# MATK (human) = MATK (human) (UniProt P42679)
# STK10 (human) = STK10 (human) (UniProt O94804)
# EPHB3 (human) = EPHB3 (human) (UniProt P54753)
# MAP4K4 (human) = MAP4K4 (human) (UniProt O95819)
# Sequence of MAP4K4 (human) (O95819 whole entry, looked up): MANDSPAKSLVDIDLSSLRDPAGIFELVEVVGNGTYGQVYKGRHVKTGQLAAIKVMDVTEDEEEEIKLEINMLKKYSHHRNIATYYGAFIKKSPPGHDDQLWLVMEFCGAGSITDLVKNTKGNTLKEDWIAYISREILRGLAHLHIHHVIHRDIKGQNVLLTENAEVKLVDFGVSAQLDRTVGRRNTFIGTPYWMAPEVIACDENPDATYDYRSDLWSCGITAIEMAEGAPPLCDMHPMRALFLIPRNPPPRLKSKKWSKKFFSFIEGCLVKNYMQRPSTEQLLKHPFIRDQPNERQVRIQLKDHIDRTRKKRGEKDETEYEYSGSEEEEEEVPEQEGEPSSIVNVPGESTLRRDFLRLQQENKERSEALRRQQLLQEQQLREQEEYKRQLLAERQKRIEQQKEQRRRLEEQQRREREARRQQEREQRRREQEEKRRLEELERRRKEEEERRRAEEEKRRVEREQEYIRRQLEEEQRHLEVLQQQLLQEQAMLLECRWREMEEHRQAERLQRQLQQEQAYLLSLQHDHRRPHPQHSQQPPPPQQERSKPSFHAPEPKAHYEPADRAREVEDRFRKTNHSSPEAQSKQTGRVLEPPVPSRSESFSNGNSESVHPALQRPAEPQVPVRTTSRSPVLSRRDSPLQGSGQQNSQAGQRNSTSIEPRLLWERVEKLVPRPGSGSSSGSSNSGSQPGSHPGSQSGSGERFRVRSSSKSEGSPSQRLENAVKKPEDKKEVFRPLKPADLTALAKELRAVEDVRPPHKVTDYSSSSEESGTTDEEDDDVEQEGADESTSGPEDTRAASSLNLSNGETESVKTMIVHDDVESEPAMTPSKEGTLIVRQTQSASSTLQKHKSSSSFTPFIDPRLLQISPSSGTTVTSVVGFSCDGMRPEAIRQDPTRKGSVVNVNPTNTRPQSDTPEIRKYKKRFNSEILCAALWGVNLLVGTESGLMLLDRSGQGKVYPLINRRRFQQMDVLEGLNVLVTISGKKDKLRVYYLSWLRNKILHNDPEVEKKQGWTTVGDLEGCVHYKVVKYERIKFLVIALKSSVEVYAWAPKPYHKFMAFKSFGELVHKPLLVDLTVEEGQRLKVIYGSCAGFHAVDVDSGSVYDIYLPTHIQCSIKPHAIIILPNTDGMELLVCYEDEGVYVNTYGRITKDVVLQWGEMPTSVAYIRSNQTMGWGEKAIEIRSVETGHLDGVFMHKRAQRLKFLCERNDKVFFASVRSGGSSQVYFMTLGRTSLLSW
# MKNK2 (human) = MKNK2 (human) (UniProt Q9HBH9)
# Sequence of MKNK2 (human) (Q9HBH9 whole entry, looked up): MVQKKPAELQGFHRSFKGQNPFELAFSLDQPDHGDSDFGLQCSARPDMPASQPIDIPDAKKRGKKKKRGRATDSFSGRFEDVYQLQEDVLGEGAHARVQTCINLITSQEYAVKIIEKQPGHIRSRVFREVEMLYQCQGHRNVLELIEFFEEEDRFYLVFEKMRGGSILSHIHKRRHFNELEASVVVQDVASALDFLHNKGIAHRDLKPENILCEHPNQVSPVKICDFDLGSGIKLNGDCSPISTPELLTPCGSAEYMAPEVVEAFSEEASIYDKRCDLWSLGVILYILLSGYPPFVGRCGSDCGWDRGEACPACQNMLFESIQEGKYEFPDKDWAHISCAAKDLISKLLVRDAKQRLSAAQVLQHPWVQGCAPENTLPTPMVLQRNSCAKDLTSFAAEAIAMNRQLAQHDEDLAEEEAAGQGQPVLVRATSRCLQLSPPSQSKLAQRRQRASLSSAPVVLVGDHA
# CDK6 CCND3 (human) = CDK6 CCND3 (human) (UniProt P30281+Q00534)
# [2] = biological target: TYK2 JH1 catalytic (human) (UniProt P29597)
# FYN (human) = FYN (human) (UniProt P06241)
# NEK11 (human) = NEK11 (human) (UniProt Q8NG66)
# ROCK1 (human) = ROCK1 (human) (UniProt Q13464)
# BMX (human) = BMX (human) (UniProt P51813)
# MET (human) = MET (human) (UniProt P08581)
# MARK3 (human) = MARK3 (human) (UniProt P27448)
# MARK4 (human) = MARK4 (human) (UniProt Q96L34)
# MAPK3 (human) = MAPK3 (human) (UniProt P27361)
# PRKCH (human) = PRKCH (human) (UniProt P24723)
# PNCK (human) = PNCK (human) (UniProt Q6P2M8)
# PBK (human) = PBK (human) (UniProt Q96KB5)
# Sequence of PBK (human) (Q96KB5 whole entry, looked up): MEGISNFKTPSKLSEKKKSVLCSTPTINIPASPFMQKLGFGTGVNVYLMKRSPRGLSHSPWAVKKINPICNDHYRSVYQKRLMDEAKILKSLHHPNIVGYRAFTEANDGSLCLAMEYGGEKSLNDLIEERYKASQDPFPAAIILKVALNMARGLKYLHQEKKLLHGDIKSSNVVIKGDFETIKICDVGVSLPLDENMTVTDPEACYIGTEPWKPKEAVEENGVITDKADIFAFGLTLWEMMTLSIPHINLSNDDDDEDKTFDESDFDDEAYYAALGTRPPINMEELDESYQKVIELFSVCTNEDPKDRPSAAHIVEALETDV
# PIM1 (human) = PIM1 (human) (UniProt P11309)
# TSSK2 (human) = TSSK2 (human) (UniProt Q96PF2)
# EPHA7 (human) = EPHA7 (human) (UniProt Q15375)
# Sequence of EPHA7 (human) (Q15375 whole entry, looked up): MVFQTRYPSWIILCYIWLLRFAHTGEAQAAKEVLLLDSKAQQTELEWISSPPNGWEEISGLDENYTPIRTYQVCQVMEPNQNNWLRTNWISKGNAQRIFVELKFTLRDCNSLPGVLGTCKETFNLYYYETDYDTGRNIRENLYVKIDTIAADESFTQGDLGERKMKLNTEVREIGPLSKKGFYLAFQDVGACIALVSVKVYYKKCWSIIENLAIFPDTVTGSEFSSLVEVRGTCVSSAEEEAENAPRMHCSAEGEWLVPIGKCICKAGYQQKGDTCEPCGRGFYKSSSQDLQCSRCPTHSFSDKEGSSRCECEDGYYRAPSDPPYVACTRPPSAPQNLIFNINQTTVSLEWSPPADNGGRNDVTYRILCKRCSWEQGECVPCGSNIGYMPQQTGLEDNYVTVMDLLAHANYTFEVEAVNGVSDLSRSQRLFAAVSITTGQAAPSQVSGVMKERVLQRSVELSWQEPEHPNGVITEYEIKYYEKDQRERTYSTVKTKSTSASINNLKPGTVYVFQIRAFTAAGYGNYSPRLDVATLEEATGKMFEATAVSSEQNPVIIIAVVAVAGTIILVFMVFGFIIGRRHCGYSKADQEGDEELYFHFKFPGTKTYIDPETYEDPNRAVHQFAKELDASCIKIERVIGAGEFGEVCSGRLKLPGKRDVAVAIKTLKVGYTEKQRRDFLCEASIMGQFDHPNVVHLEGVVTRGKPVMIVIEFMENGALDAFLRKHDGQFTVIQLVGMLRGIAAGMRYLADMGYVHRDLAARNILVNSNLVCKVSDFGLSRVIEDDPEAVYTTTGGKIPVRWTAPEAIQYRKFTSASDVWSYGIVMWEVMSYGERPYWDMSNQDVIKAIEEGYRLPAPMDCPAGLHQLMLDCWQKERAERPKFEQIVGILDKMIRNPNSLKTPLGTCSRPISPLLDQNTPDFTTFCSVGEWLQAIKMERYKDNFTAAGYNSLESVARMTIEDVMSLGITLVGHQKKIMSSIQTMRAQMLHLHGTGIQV
# NUAK2 (human) = NUAK2 (human) (UniProt Q9H093)
# PRKCD (human) = PRKCD (human) (UniProt Q05655)
# HIPK3 (human) = HIPK3 (human) (UniProt Q9H422)
# Sequence of DYRK2 (human) (Q92630 whole entry, looked up): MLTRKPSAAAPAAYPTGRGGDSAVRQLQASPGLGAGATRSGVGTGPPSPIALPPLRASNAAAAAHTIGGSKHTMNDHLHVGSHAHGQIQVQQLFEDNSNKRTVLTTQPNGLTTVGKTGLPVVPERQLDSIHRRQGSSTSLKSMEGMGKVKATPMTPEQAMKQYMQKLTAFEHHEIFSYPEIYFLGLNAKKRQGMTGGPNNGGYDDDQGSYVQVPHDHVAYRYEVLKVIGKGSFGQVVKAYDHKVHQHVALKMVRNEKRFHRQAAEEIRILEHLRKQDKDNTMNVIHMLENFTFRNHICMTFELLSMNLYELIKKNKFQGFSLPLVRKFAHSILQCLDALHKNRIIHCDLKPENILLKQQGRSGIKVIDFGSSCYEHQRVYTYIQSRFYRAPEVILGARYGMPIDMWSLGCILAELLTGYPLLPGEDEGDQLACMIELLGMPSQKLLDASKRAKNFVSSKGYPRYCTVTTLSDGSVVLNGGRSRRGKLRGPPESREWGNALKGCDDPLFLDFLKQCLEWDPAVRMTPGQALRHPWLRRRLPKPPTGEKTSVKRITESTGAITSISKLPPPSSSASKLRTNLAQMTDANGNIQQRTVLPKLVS
# Sequence of MELK (human) (Q14680 whole entry, looked up): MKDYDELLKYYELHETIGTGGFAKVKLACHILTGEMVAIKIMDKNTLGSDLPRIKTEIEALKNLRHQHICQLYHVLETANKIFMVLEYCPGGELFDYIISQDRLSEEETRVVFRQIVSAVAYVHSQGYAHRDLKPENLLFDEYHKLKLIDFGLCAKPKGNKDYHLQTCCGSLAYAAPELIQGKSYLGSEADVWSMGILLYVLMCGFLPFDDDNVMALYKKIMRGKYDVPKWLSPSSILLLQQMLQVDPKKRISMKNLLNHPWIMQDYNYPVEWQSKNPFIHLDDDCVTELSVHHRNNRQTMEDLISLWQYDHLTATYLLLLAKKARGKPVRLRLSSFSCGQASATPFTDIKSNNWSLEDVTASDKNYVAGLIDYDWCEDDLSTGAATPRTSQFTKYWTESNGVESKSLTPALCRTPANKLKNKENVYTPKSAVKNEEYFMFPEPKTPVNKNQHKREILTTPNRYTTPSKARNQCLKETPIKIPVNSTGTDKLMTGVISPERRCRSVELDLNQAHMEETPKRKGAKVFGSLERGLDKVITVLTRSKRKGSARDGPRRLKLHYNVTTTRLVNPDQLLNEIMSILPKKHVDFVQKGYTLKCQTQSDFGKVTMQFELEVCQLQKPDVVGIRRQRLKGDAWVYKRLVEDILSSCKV
smiles,measurement,setting,value
Cc1cccc(-c2nc(C(C)(C)C)[nH]c2-c2ccc3c(c2)OCO3)n1,residual activity,VRK1 (human),97.5%
same,residual activity,PKN1 (human),108%
same,residual activity,DYRK2 (human),108%
same,residual activity,MELK (human),92.7%
same,residual activity,HCK (human),90.7%
same,residual activity,MST4 (human),95.5%
same,residual activity,EPHA5 (human),95.6%
same,residual activity,[1],86.8%
same,residual activity,PRKX (human),95%
same,residual activity,AKT2 (human),80.1%
same,residual activity,CSNK1G2 (human),104%
same,residual activity,CHEK1 (human),89.8%
same,residual activity,STK11 (human),91.3%
same,residual activity,CDK5 CDK5R1 p25 (human),90.1%
same,residual activity,RPS6KA1 KD1 KD2 (human),96.4%
same,residual activity,STK17A (human),84.1%
same,residual activity,MAP3K8 (human),94.5%
same,residual activity,RPS6KA2 KD1 KD2 (human),96.4%
same,residual activity,MATK (human),100%
same,residual activity,STK10 (human),94.5%
same,residual activity,EPHB3 (human),103%
same,residual activity,MAP4K4 (human),86.9%
same,residual activity,MKNK2 (human),87.8%
same,residual activity,CDK6 CCND3 (human),98%
same,residual activity,[2],102%
same,residual activity,FYN (human),108%
same,residual activity,NEK11 (human),90.3%
same,residual activity,ROCK1 (human),101%
same,residual activity,BMX (human),82%
same,residual activity,MET (human),82.7%
same,residual activity,MARK3 (human),73.9%
same,residual activity,MARK4 (human),99.7%
same,residual activity,MAPK3 (human),111%
same,residual activity,PRKCH (human),104%
same,residual activity,PNCK (human),101%
same,residual activity,PBK (human),103%
same,residual activity,PIM1 (human),100%
same,residual activity,TSSK2 (human),92.7%
same,residual activity,EPHA7 (human),81.6%
same,residual activity,NUAK2 (human),138%
same,residual activity,PRKCD (human),104%
O=C1C(Cl)=C(N2C(=O)CCC2=O)C(=O)c2ccccc21,residual activity,VRK1 (human),92.4%
same,residual activity,PKN1 (human),108%
same,residual activity,DYRK2 (human),98.6%
same,residual activity,MELK (human),96.4%
same,residual activity,HCK (human),94.2%
same,residual activity,MST4 (human),98.3%
same,residual activity,EPHA5 (human),113%
same,residual activity,[1],135%
same,residual activity,PRKX (human),103%
same,residual activity,AKT2 (human),96.3%
same,residual activity,CSNK1G2 (human),99.3%
same,residual activity,CHEK1 (human),111%
same,residual activity,STK11 (human),99.8%
same,residual activity,CDK5 CDK5R1 p25 (human),87.3%
same,residual activity,RPS6KA1 KD1 KD2 (human),96.6%
same,residual activity,STK17A (human),101%
same,residual activity,MAP3K8 (human),91.8%
same,residual activity,RPS6KA2 KD1 KD2 (human),104%
same,residual activity,MATK (human),88%
same,residual activity,EPHB3 (human),97%
same,residual activity,MAP4K4 (human),93.7%
same,residual activity,MKNK2 (human),84.5%
same,residual activity,CDK6 CCND3 (human),99.2%
same,residual activity,[2],102%
same,residual activity,FYN (human),111%
same,residual activity,HIPK3 (human),112%
same,residual activity,NEK11 (human),101%
same,residual activity,ROCK1 (human),106%
same,residual activity,BMX (human),103%
same,residual activity,MET (human),109%
same,residual activity,MARK3 (human),87.8%
same,residual activity,MARK4 (human),99.6%
same,residual activity,MAPK3 (human),99.3%
same,residual activity,PRKCH (human),93.1%
same,residual activity,PNCK (human),100%
same,residual activity,PBK (human),106%
same,residual activity,PIM1 (human),100%
same,residual activity,TSSK2 (human),103%
same,residual activity,EPHA7 (human),106%
same,residual activity,NUAK2 (human),86.7%
same,residual activity,PRKCD (human),97.8%
